Source: patent US10125126B2, “N-cycloalkyl-N-[(heterocyclylphenyl)methylene]-(thio)carboxamide derivatives” (BAYER CROPSCIENCE AG, priority 2012, dated 2018)

Test: log P by HPLC on a reversed-phase column (C 18), EEC Directive 79/831 Annex V.A8
Format: physicochemical
Details: HPLC on reversed-phase column (C 18), 40° C., 0.1% aqueous formic acid and acetonitrile, linear gradient 10% to 90% acetonitrile
Protocol: In table 1, the log P values were determined in accordance with EEC Directive 79/831 Annex V.A8 by HPLC (High Performance Liquid Chromatography) on a reversed-phase column (C 18), using the method described below: Temperature: 40° C.; Mobile phases: 0.1% aqueous formic acid and acetonitrile; linear gradient from 10% acetonitrile to 90% acetonitrile. Calibration was carried out using unbranched alkan-2-ones (comprising 3 to 16 carbon atoms) with known log P values (determination of the log P values by the retention times using linear interpolation between two successive alkanones). lambda-max-values were determined using UV-spectra from 200 nm to 400 nm and the peak values of the chromatographic signals.

Row | logP | SMILES
1 | 3.46 | Cn1nc(C(F)F)c(C(=O)N(Cc2ccccc2-c2ccco2)C2CC2)c1Cl [I.30]
2 | 4.21 | COc1ccsc1-c1ccc(C)cc1CN(C(=O)c1c(C(F)F)nn(C)c1F)C1CC1C (stereo not shown) [I.127]
3 | 4.61 | O=C(c1ccsc1I)N(Cc1cc(-c2ccco2)ccc1Cl)C1CC1 [I.41]
4 | 4.59 | Cc1cc(C(=O)N(Cc2cc(-c3ccsc3)ccc2Cl)C2CC2)c(C)o1 [I.98]
5 | 2.94 | Cn1nc(C(F)F)c(C(=O)N(Cc2ccccc2C2(C)OCCO2)C2CC2)c1F [I.20]
6 | 4.29 | Cn1nc(C(F)F)c(C(=O)N(Cc2cc(-c3cccs3)ccc2Cl)C2CC2)c1Cl [I.85]
7 | 4.44 | Cc1ccc(-c2ccsc2Cl)c(CN(C(=O)c2c(C(F)F)nn(C)c2Cl)C2CC2)c1 [I.148]
8 | 2.71 | Cc1ccc(-c2c(C)nn(C)c2C)c(CN(C(=O)c2c(C(F)F)nn(C)c2F)C2CC2)c1 [I.115]
9 | 4.49 | Cc1ccc(-c2coc3ccccc23)c(CN(C(=O)c2c(C(F)F)nn(C)c2Cl)C2CC2)c1 [I.133]
10 | 3.83 | Cc1ccc(-c2cscc2C)c(CN(C(=O)c2cn(C)nc2C(F)F)C2CC2)c1 [I.109]
11 | 3.55 | Cn1nc(C(F)F)c(C(=O)N(Cc2c(C3(C)CO3)ccc(Cl)c2Cl)C2CC2)c1F (stereo not shown) [I.9]
12 | 5.05 | Cc1ccc(-c2csc3ccccc23)c(CN(C(=O)c2c(C(F)F)nn(C)c2Cl)C2CC2C)c1 (stereo not shown) [I.167]
13 | 3.17 | Cc1ccc(C2(C)CO2)c(CN(C(=O)c2c(C(F)F)nn(C)c2F)C2CC2)c1F (stereo not shown) [I.12]
14 | 5.19 | Cc1ccc(-c2csc3ccccc23)c(CN(C(=O)c2c(C(F)F)nn(C)c2Cl)C2CC2C)c1 (stereo not shown) [I.164]
15 | 3.37 | Cn1nc(C(F)F)c(C(=O)N(Cc2c(C3(C)CO3)ccc(Cl)c2F)C2CC2)c1Cl (stereo not shown) [I.10]
16 | 3.59 | Cn1nc(C(F)F)c(C(=O)N(Cc2cc(C34CCCC3O4)ccc2Cl)C2CC2)c1F (stereo not shown) [I.17]
17 | 4.14 | Cc1nc(C(F)F)c(C(=O)N(Cc2cc(-c3ccsc3)ccc2Cl)C2CC2)s1 [I.96]
18 | 4.41 | Cc1ccc(-c2cscc2C)c(CN(C(=O)c2c(C(F)F)nn(C)c2Cl)C2CC2)c1 [I.107]
19 | 5.54 | Cc1cc(C(=O)N(Cc2cc(-c3ccc(Cl)s3)ccc2Cl)C2CC2)c(C)o1 [I.152]
20 | 4.98 | Cc1ccc(-c2csc3ccccc23)c(CN(C(=O)c2c(C(F)F)nn(C)c2F)C2CC2C)c1 (stereo not shown) [I.163]
21 | 3.46 | COc1ccsc1-c1ccc(C)cc1CN(C(=O)c1cn(C)nc1C(F)F)C1CC1 [I.124]
22 | 4.39 | Cn1nc(C(F)F)c(C(=S)N(Cc2ccccc2-c2ccsc2)C2CC2)c1Cl [I.80]
23 | 2.80 | Cc1ccc(-c2c(C)nn(C)c2C)c(CN(C(=O)c2c(C(F)F)nn(C)c2Cl)C2CC2)c1 [I.117]

Same assay, conditions: HPLC, C 18, 40° C., 0.1% aqueous formic acid and acetonitrile

Row | logP | SMILES
24 | 3.17 | CC(C)c1ccc(Cl)cc1C=NO [1-(5-chloro-2-isopropylphenyl)-N-hydroxymethanimine]

Same assay, conditions: logP

Row | chromatographic logP | SMILES
25 | 3.96 | C=C(C)c1ccc(Cl)cc1CN(C(=O)c1c(C(F)F)nn(C)c1F)C1CC1 [N-[5-chloro-2-(prop-1-en-2-yl)benzyl]-N-cyclopropyl-3-(difluoromethyl)-5-fluoro-1-methyl-1H-pyrazole-4-carboxamide]

Same assay, conditions: reversed-phase HPLC column (C 18), HPLC, C 18, 40° C., 0.1% aqueous formic acid and acetonitrile; read-out: logP

Row | chromatographic logP | SMILES
26 | 1.51 | Clc1ccc(-c2ccc(Cl)s2)c(CNC2CC2)c1 [IIa.7, N-[5-chloro-2-(5-chloro-2-thienyl)benzyl]cyclopropanamine]
27 | 0.99 | Clc1ccc(-c2ccco2)c(CNC2CC2)c1 [IIa.1, N-[5-chloro-2-(2-furyl)benzyl]cyclopropanamine]
28 | 2.9 | CC(C)c1ccc(Cl)cc1C=NO [1-(5-chloro-2-isopropylphenyl)-N-hydroxymethanimine]
29 | 1.29 | Clc1ccc(-c2cccs2)cc1CNC1CC1 [IIb.2, N-[2-chloro-5-(2-thienyl)benzyl]cyclopropanamine]
30 | 1.28 | Clc1ccc(-c2ccccc2CNC2CC2)s1 [IIa.6, N-[2-(5-chloro-2-thienyl)benzyl]cyclopropanamine]
31 | 1.28 | Clc1ccc(-c2ccsc2)cc1CNC1CC1 [IIb.3, N-[2-chloro-5-(3-thienyl)benzyl]cyclopropanamine]
